# Literature values as cited in patent publication US10835570B2, “Dietary supplement” (priority 2016, dated 2020).
# Test system: receptors ERb and ERa
# Conditions: oestrogen-like affinity, ERb versus ERa
compound,measurement,value
O=c1c(-c2ccc(O)cc2)coc2cc(O)cc(O)c12 [genistein],affinity greater for receptors ERb than for receptors ERa,20 times
